Data from US20190365666A1, “METHODS FOR PREVENTION AND TREATMENT OF CARDIOMETABOLIC SYNDROME AND COMPOSITIONS USED THEREIN” (OmniActive Health Technologies Limited, priority 2015, published 2019).

Tests used:
[1] = system: differentiated 3T3-L1 cells; test: Real time PCR gene expression (nutrigenomics) study in differentiated 3T3-L1 adipocytes; format: cell-based, murine; conditions: 12.5 ug/mL, versus DMSO
Method: 3T3L1 murine adipocytes model system was used to understand basic cellular mechanisms associated with diabetes, obesity and related disorders. Nutrigenomics study was carried out to evaluate effect of beta-cryptoxanthin on adipocyte cells, particularly differentiated 3T3-L1 cells, the study was based on real-time polymerase chain reaction (Real time PCR) with dose 12.5 ug/mL. The effect of beta-cryptoxanthin on Adipocyte differentiation and its activity for bio markers PPARG, SCD-1, acetyl Coa carboxylase (ACC), SREBP-1, C/EBPα and FAS were evaluated.
See FIG. 4, where each set of bar graphs for tests with BCX and without BCX (DMSO) correspond from the leftside bar respectively with the heading legend of the factors tested (i.e. for the bar results of BCX, 0.9 for ACC alpha, 0.39 for C/EPB alpha, 0.33 for FAS, 0.7 for PPAR gamma, and 0.38 for SCD-1).

[2] = Body weight, feed intake, visceral fat and liver weight in control and high fat diet rats; format: in vivo, Sprague Dawley rats; conditions: 2.5 mg/kg daily, 12 weeks
Method: (§1) Male Sprague Dawley rats (7 rats/group, age: 8 week, weight: 180±20 g) were housed in a controlled environment with a 12:12-h light-dark cycle at 22° C. and provided with rat chow and water ad libitum. All experiments were conducted under the National Institutes of Health's Guidelines for the Care and Use of Laboratory Animals and approved by the Ethics Committee of the Veterinary Control Institute. After acclimation for 2 weeks, the rats were divided into four groups: Rats were randomly divided into the following groups: (1) Control, (2) High Fat Diet (HFD) (42% of calories from fat), (3) control+beta-cryptoxanthin (2.5 mg/kg) 4) HFD (42% of calories from fat)+beta-cryptoxanthin (2.5 mg/kg) was administered daily as supplement for 12 weeks.
The experiment was performed using 28 male Sprague-Dawley rats (8 weeks old, weighing 180±20 g), purchased from the Inonu University Laboratory Animal Research Center (Malatya, Turkey). Rats were housed in cages in a temperature and humidity controlled environment, on a 12-hr light and 12-hr dark cycle, designed for the purpose of the study. The temperature inside the rat cages was 21±2° C., relative humidity was 55±5% and consecutive light-dark cycles lasted 12 hours. The protocol of the study was approved by the Animal Experimentation Ethics Committee of Inonu University (Malatya, Turkey). All procedures involving rats were conducted in strict compliance with relevant laws, the Animal Welfare Act, Public Health Services Policy, and guidelines established by the Institutional Animal Care and Use Committee of the Institute. Prior the starting the experiment, animals were assigned to either a regular diet (control; 12% of calories from fat) or a high-fat diet (HFD, 42% of calories from fat). Control or HFD composed according to the American Institute of Nutrition AIN-93 (Reeves et al., 1993) recommendations of casein (20%), soybean oil (7%), wheat starch (53.2%), sucrose (10%), potato starch (5%), 1-cysteine (0.3%), vitamin mix AIN-93M (1%) and mineral mix AIN-93M (3.5%). The high-fat diets (42% calories from fat) were obtained from the basal AIN-93 diet, by replacement of wheat starch with fat (tallow 15% and soybean oil 10%). For induction of obesity (insulin resistance), the rats were fed with HFD for 12 weeks
(§2) After a one week period of adaptation to laboratory conditions, the animals were randomly divided into four equal groups: 1) Control (n=7): untreated rats were allowed free access to a standard diet; 2) BCX Group, rats were fed a standard diet supplemented with beta-cryptoxanthin (n=7) 2.5 mg/kg; 3) HFD Group (high-fat diet; 42% of calories from fat; n=7): rats were fed a high-fat diet 4) HFD+BCX Group, rats were fed a high-fat diet (42% of calories from fat; n=7) supplemented with beta-cryptoxanthin 2.5 mg/kg. 5% suspension of beta-cryptoxanthin was dissolved in corn oil. At the end of the experiment, all rats were sacrificed by cervical dislocation. Blood samples were taken from rats in the morning upon overnight fasting for biochemical analyses and their visceral fat and liver samples were removed and weighed after sacrificing the animals.

[3] = Serum glucose, insulin, leptin, adiponectin and lipid profile in control and HFD rats; format: in vivo, Sprague Dawley rats; conditions: 2.5 mg/kg daily, 12 weeks
Method: as §1, §2
Blood was collected by cardiac puncture using an anticoagulant-free vacutainer tube, later centrifuged at 3,000×g for 10 min to obtain serum and kept frozen at −80° C. until it was assayed for biochemical parameters and malondialdehyde (MDA). Serum biochemical parameters were estimated using an automatic analyzer (Samsung LABGEO PT10, Samsung Electronics Co, Suwon, Korea). Repeatability and device/method precision of LABGEO^PT10 was established according to the IVR-PT06 guideline. Serum insulin, leptin and adiponectin levels were measured with the Rat Insulin Kit (Linco Research Inc, St. Charles, Mo., USA) by ELISA (Elx-800; Bio-Tek Instruments Inc, Vermont, USA).

[4] = Oxidative stress markers and antioxidant status (TBARS/MDA, TAC, SOD, CAT, GSHPx) in serum, retina and liver of control and HFD rats; format: in vivo, Sprague Dawley rats; conditions: 2.5 mg/kg daily, 12 weeks
Method: as §1, §2
The total antioxidant capacity (TAC) was measured using an antioxidant assay kit (Sigma, St Louis, Mo., USA). Trolox was used as an antioxidant standard to calculate Trolox equivalent antioxidant capacity; absorbance readings were taken at 520 nm. Lipid peroxidation was measured in terms of MDA formation, which is the major product of membrane lipid peroxidation done by a previously described method (Karatepe, 2004) with slight modification.
The liver MDA content was measured by high performance liquid chromatography (HPLC, Shimadzu, Tokyo, Japan) using a Shimadzu UV-vis SPD-10 AVP detector and a CTO-10 AS VP column in a mobile phase consisting of 30 mM KH2PO4 and methanol (82.5+17.5, v/v; pH 3.6) at a flow rate of 1.2 ml/min. Column effluents were monitored at 250 nm and the volume was 20 μl. The liver homogenate (10%, w/v) was prepared in 10 mM phosphate buffer (pH 7.4), centrifuged at 13,000×g for 10 min at 4° C., and the supernatant was collected and stored at −80° C. for MDA analysis (Karatepe, 2004). Activities of superoxide dismutase (SOD), catalase (CAT) and glutathione peroxidase (GPx) of homogenized liver were measured using a commercial kit (Cayman Chemical, Ann Arbor, Mich., USA) according to the manufacturer's instructions.

[5] = system: VEGF, Nrf-2, NFkB, iNOS, ICAM-1, HO-1 in retina tissue; test: Western blot of retina tissue markers in HFD treated rats; format: in vivo, Sprague Dawley rats; conditions: FIG. 8
[6] = system: BCO2, TNF-α, PPAR-γ, Nrf-2, NFkB, IRS-1, HO-1 in liver tissue; test: Western blot of liver tissue markers in HFD treated rats; format: in vivo, Sprague Dawley rats
Method: as §2
For Western blot analyses protein extraction was performed by homogenizing the liver in 1 ml ice-cold hypotonic buffer A, containing 10 mM2-[4-(2-Hydroxyethyl)-1-piperazinyl] ethanesulfonic acid [HEPES] (pH 7.8), 10 mMKCl, 2 mM MgCl2, 1 mM DTT, 0.1 mM EDTA, and 0.1 mM phenylmethylsulfonyl-fluoride (PMSF). The homogenates were added with 80 μl of 10% Nonidet P-40 (NP-40) solution and then centrifuged at 14,000×g for 2 min. The precipitates were washed once with 500 μl of buffer A plus 40 μl of 10% NP-40, centrifuged, re-suspended in 200 μl of buffer C [50 mM HEPES [pH 7.8], 50 mMKCl, 300 mM NaCl, 0.1 mM EDTA, 1 mM dihiothreitol [DTT], 0.1 mM PMSF, 20% glycerol], and recentrifugedat 14,800×g for 5 min. The supernatants were collected for determinations of NF-KB, VEGF, iNOS, ICAM, Nrf2, and HO-1 according to the method described by Sahin et al. [2012]. Equal amounts of protein (50 μg) were electrophoresed and subsequently transferred onto a nitrocellulose membrane (Schleicher and Schuell Inc., Keene, N.H., USA).
Antibodies against NF-κB, TNF-α, Nrf2, HO-1, PPAR-γ, and p-IRS1, (Abcam (Cambridge, UK) were diluted (1:1000) in the same buffer containing 0.05% Tween-20. Protein loading was controlled sing a monoclonal mouse antibody against β-actin (A5316; Sigma). Bands were analyzed densitometrically using an image analysis system (Image J; National Institute of Health, Bethesda, USA). (FIG. 12)

[7] = system: BCO2, TNF-α, PPAR-γ, Nrf-2, NFkB, IRS-1, HO-1 in liver tissue; test: as above; format: in vivo, Sprague Dawley rats; conditions: P<0.001
[8] = HFD rats, listed as BC, 2.5 mg/kg
[9] = HFD rats, listed as Beta-cryptoxanthin, 2.5 mg/kg
[10] = HFD rats, Western blot, P<0.001

CC1=C(/C=C/C(C)=C/C=C/C(C)=C/C=C/C=C(C)/C=C/C=C(C)/C=C/C2=C(C)C[C@@H](O)CC2(C)C)C(C)(C)CCC1 [BCX, beta-cryptoxanthin]
ACC alpha expression (FIG. 4 bar result) [1]: 0.9 | PPAR gamma expression (FIG. 4 bar result) [1]: 0.7 | Feed intake ([2]; HFD rats): 16.87 g/day | Final BW ([2]; HFD rats, 2.5 mg/kg): decrease | Liver (weight) ([2]; HFD rats, 2.5 mg/kg): decreased | Visceral fat ([2]; HFD rats, 2.5 mg/kg): decreased | Final BW [2, 8]: 325.43 g | Liver (weight) [2, 8]: 18.46 g | Visceral fat [2, 8]: 14.93 g | Final BW [2, 9]: significantly reduced | Visceral fat [2, 9]: a tendency towards a decrease | Feed intake ([2]; normal diet rats): 23.88 g/day | Final BW ([2]; normal diet rats): 290.29 g | Liver (weight) ([2]; normal diet rats): 12.74 g | Visceral fat ([2]; normal diet rats): 7.75 g | Adiponectin ([3]; HFD rats, 2.5 mg/kg): decreased | Glucose ([3]; HFD rats, 2.5 mg/kg): significantly reduced | Insulin ([3]; HFD rats, 2.5 mg/kg): significantly reduced | Leptin ([3]; HFD rats, 2.5 mg/kg): significantly reduced | Adiponectin ([3]; normal diet rats): 10.8 µg/mL | FFA ([3]; normal diet rats): 1.12 mM | Glucose ([3]; normal diet rats): 78.29 mg/dL | HDL-C ([3]; normal diet rats): 17.00 mg/dL | Insulin ([3]; normal diet rats): 1.73 ng/mL | LDL-C ([3]; normal diet rats): 25.00 mg/dL | Leptin ([3]; normal diet rats): 30.43 ng/mL | T-C (total cholesterol) ([3]; normal diet rats): 48.6 mg/dL | TG ([3]; normal diet rats): 20.57 mg/dL | Liver CAT ([4]; HFD rats, 2.5 mg/kg): increased | Liver SOD ([4]; HFD rats, 2.5 mg/kg): increased | Liver TBARS ([4]; HFD rats, 2.5 mg/kg): decreased | Retinal TBARS ([4]; HFD rats, 2.5 mg/kg): reducing | Serum TAC ([4]; HFD rats, 2.5 mg/kg): increased | Serum TBARS ([4]; HFD rats, 2.5 mg/kg): reducing | Liver CAT [4, 8]: 271.57 U/mg protein | Liver GSHPx [4, 8]: 17.43 U/mg protein | Liver SOD [4, 8]: 130.43 U/mg protein | Liver TBARS [4, 8]: 2.98 nmol/mg protein | Serum TAC [4, 8]: 0.64 U/mL | Serum TBARS [4, 8]: 1.64 nmol/mL | Liver CAT [4, 9]: increased | Liver GSHPx [4, 9]: increased | Liver SOD [4, 9]: increased | Liver TBARS [4, 9]: decreased | Liver CAT ([4]; normal diet rats): 306.14 U/mg protein | Liver GSHPx ([4]; normal diet rats): 50.29 U/mg protein | Liver SOD ([4]; normal diet rats): 198.57 U/mg protein | Liver TBARS ([4]; normal diet rats): 1.56 nmol/mg protein | Serum TAC ([4]; normal diet rats): 1.19 U/mL | Serum TBARS ([4]; normal diet rats): 0.67 nmol/mL | iNOS in retina tissue (effect in words) [5]: decreased | BCO2 expression in liver tissue (effect in words) ([6]; FIG. 13): upregulate | Nrf2 expression in liver tissue (effect in words) ([6]; HFD rats, FIG. 16): decrease | NFkB in liver tissue (effect in words) ([6]; HFD rats, FIG. 17): decreased | HO-1 in liver tissue (effect in words) ([6]; HFD rats, FIG. 18): decreased | IRS-1 in liver (effect in words) ([6]; HFD rats, FIG. 19): increased | enhancement of liver HO-1 level [6, 10]: 1.41 fold | enhancement of liver p-IRS1 level [6, 10]: 1.33 fold | inhibition of liver NFkB expression [6, 10]: 22% | inhibition of liver TNF-α expression [6, 10]: 14% | PPAR gamma in liver tissue (effect in words) ([6]; HFD treated rats, FIG. 15): activated | enhancement of liver PPAR-α level [7]: 3.53 fold
